Measured values published in patent publication US20240246946A1, “MODULATORS OF TREX1” (Constellation Pharmaceuticals, Inc., priority 2021, published 2024).

Experiments:
full length human TREX1 = biological target: T1, full length human TREX1 (Homo sapiens, UniProt Q9NSU2); test: hTREX1 Biochemical Assay (fluorescence, dsDNA substrate degradation); settings: biochemical, read-out: hTREX1 IC50
T1 construct: N-terminally His-Tev tagged full length human TREX1; made in house; host or cells: E. coli
T1 sequence (Q9NSU2 1-314): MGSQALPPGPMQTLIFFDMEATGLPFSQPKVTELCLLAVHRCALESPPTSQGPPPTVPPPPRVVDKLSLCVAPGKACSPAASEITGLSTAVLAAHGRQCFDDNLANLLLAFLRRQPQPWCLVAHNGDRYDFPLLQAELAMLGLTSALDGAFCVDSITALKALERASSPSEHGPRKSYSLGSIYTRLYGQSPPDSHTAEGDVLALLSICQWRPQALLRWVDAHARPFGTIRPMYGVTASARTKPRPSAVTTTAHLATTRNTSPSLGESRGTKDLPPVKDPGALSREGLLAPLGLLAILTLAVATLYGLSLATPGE
Method in brief: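 Cleavage of 60 nM TEX615/quencher-labelled dsDNA in pH 7.4 Tris buffer with 5 mM MgCl2, 1.0% DMSO, run 18 hours at 25° C, EDTA-quenched; fluorescence read-out.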

full length mouse TREX1 = biological target: T2, full length mouse TREX1 (Mus musculus, UniProt Q91XB0); test: mTREX1 Biochemical Assay (fluorescence, dsDNA substrate degradation); settings: biochemical, read-out: mTREX1 IC50
T2 construct: N-terminally His-Tev tagged full length mouse TREX1; made in house; host or cells: E. coli
T2 sequence (Q91XB0 1-314): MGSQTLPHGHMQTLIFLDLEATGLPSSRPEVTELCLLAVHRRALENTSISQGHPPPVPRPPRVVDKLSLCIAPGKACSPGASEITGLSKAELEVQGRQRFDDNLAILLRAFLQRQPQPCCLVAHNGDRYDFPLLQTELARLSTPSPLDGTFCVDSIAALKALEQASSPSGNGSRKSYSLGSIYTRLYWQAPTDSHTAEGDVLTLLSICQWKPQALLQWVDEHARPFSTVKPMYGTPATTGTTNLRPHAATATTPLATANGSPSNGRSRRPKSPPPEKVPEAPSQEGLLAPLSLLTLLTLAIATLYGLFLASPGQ
Method in brief: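 Reaction run 18 h at 25° C. with 60 nM TEX615/quencher-labelled dsDNA and 6 pM mouse TREX1 in Tris buffer (pH 7.4, 5 mM MgCl2, 1.0% DMSO), enzyme having sat 4 h with compound across 10 concentrations. EDTA quench; substrate degradation measured as fluorescence increase.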

[1] = biological target: T3, human TREX2 (residues M44-A279) (Homo sapiens, UniProt Q9BQ50); test: hTREX2 Biochemical Assay (fluorescence, dsDNA substrate degradation); settings: biochemical selectivity for hTREX1 vs hTREX2
T3 construct: human TREX2 (residues M44-A279, expressed in E. coli); made in house; host or cells: E. coli
T3 sequence (Q9BQ50 44-279 isoform Q9BQ50-1): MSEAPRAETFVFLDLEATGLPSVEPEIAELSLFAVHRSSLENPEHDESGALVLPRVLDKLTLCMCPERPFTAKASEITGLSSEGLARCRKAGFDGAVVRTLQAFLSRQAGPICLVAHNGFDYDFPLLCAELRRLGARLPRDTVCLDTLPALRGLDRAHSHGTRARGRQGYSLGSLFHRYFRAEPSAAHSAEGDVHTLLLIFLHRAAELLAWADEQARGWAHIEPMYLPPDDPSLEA
Method in brief: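 N-His-Tev E. coli enzyme (50 pM) pre-incubated with compound 4 h at 25 °C, then 60 nM TEX615/quencher dsDNA added; 18 h at 25 °C, pH 7.4 Tris buffer with 5 mM MgCl2, 1.0% DMSO. EDTA-quenched; fluorescence 570 ex/615 em from liberated fluorophore, 10-point dose-response.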

hTREX1 = biological target: T4, hTREX1 (Homo sapiens, UniProt Q9NSU2); test: hTREX1 HCT116 Cell Assay (HCT116 dual cells, Lucia luciferase reporter of Type I interferon induction); format: cell-based; settings: TREX1i 4 h before pBR322/BstNI transfection, read after 48 h
T4 construct: host or cells: HCT116 dual cells
T4 sequence (Q9NSU2 1-314): T1 sequence (Q9NSU2 1-314)
Method in brief: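 HCT116 dual cells carrying an ISRE-type STAT1/STAT2-driven secreted Lucia luciferase reporter were pretreated with TREX1 inhibitor for 4 h (≤0.1% DMSO), then transfected with pBR322/BstNI DNA (100 ng/well, Lipofectamine LTX). Luciferase in medium read after 48 h at 37 °C.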

SMILES | IC50 (full length human TREX1) | IC50 (full length mouse TREX1) | hTREX1 vs hTREX2 selectivity [1] | IC50 (hTREX1)
Cc1nccc(C(c2ccccc2C#N)C(C)c2nc(C(=O)Nc3cnoc3)c(O)c(=O)n2C)n1 (single isomer, unassigned) [Example 83 D1E1] | < 0.001 µM | > 0.01 µM | C (C = >50 fold selective for hTREX1) | 0.01 to 0.1 µM
Cc1nccc(C(c2ccccc2C#N)C(C)c2nc(C(=O)Nc3cnoc3)c(O)c(=O)n2C)n1 (single isomer, unassigned) [Example 83 D2E1] | 0.001 to 0.01 µM | > 0.01 µM | B (B = 25 to 50-fold selective for hTREX1) | > 0.1 µM
Cc1cnn(C)c1C(c1ccccc1C#N)C(C)c1nc(C(=O)Nc2cnoc2)c(O)c(=O)n1C (single isomer, unassigned) [Example 84 D1E1] | < 0.001 µM | 0.001 to 0.01 µM | B (B = 25 to 50-fold selective for hTREX1) | 0.01 to 0.1 µM
CCn1cc(C(c2ccccc2Cl)C(C)c2nc(C(=O)Nc3cnoc3)c(O)c(=O)n2C)cn1 (single isomer, unassigned) [Example 85 D1E1] | < 0.001 µM | < 0.001 µM | B (B = 25 to 50-fold selective for hTREX1) | 0.01 to 0.1 µM
CCn1cc(C(c2ccccc2Cl)C(C)c2nc(C(=O)Nc3cnoc3)c(O)c(=O)n2C)cn1 (single isomer, unassigned) [Example 85 D1E2] | 0.001 to 0.01 µM | > 0.01 µM | A (A = <25 fold selective for hTREX1) | > 0.1 µM
CCn1cc(C(c2ccccc2Cl)C(C)c2nc(C(=O)Nc3cnoc3)c(O)c(=O)n2C)cn1 (single isomer, unassigned) [Example 85 D2E1] | > 0.01 µM | > 0.01 µM | A (A = <25 fold selective for hTREX1) | > 0.1 µM
CC(c1nc(C(=O)Nc2cnoc2)c(O)c(=O)n1C)C(c1cnn(CC(C)(C)O)c1)c1ccccc1Cl (single isomer, unassigned) [Example 86 D1E1] | < 0.001 µM | 0.001 to 0.01 µM | B (B = 25 to 50-fold selective for hTREX1) | > 0.1 µM
CC(c1nc(C(=O)Nc2cnoc2)c(O)c(=O)n1C)C(c1cnn(CC2COC2)c1)c1ccccc1Cl (single isomer, unassigned) [Example 88 D1E1] | < 0.001 µM | 0.001 to 0.01 µM | A (A = <25 fold selective for hTREX1) | > 0.1 µM
CC(c1nc(C(=O)Nc2cnoc2)c(O)c(=O)n1C)C(c1cc(F)ccc1Cl)c1cn(C)nc1C#N (single isomer, unassigned) [Example 89 D1E2] | < 0.001 µM | 0.001 to 0.01 µM | C (C = >50 fold selective for hTREX1) | < 0.01 µM
CC(c1nc(C(=O)Nc2cnoc2)c(O)c(=O)n1C)C(c1ccccc1C#N)c1cn(C)nc1F (single isomer, unassigned) [Example 91 D1E2] | > 0.01 µM | > 0.01 µM | A (A = <25 fold selective for hTREX1) | > 0.1 µM
CC(c1nc(C(=O)Nc2cnoc2)c(O)c(=O)n1C)C(c1cnn(CC(C)(C)O)c1)c1cc(F)ccc1Cl (single isomer, unassigned) [Example 92 D1E1] | 0.001 to 0.01 µM | 0.001 to 0.01 µM | A (A = <25 fold selective for hTREX1) | > 0.1 µM
COC(C)(C)Cn1cc(C(c2cc(F)ccc2Cl)C(C)c2nc(C(=O)Nc3cnoc3)c(O)c(=O)n2C)cn1 (single isomer, unassigned) [Example 93 D1E1] | 0.001 to 0.01 µM | 0.001 to 0.01 µM | B (B = 25 to 50-fold selective for hTREX1) | 0.01 to 0.1 µM
